What was measured:
NFE2L1 pathway = assay: 3×PSMA4-ARE-LUC reporter with or without N-acetyl-L-cysteine (NAC); assay type: cell-based, human; conditions: HEK293, 5 μM, 16 h
Excerpt: We next examined whether the selected RUN compounds activate the NFE2L1 pathway in a stress-independent manner, while preserving normal ubiquitin-dependent proteasomal degradation. This distinction is crucial, as the therapeutic benefit of NFE2L1 activation lies in its ability to alleviate proteotoxic stress and target disease-related proteins for degradation without compromising normal proteostasis. To assess this, U2OS cells stably expressing the short-lived fluorescent reporter Ub-G76V-GFP were treated with various concentrations of RUN compounds. […] We also examined whether compound-induced activation of NFE2L1 could be attributed to the generation of reactive oxygen species (ROS). To test this, the 3×PSMA4-ARE-LUC reporter assay was performed in the presence or absence of the antioxidant N-acetyl-L-cysteine (NAC). A decrease in reporter activity upon NAC treatment would indicate pathway activation through oxidative stress. […]
To determine whether RUN compounds activate the NFE2L1 pathway via reactive oxygen species (ROS) generation or through Keap1-NRF2 pathway crosstalk, we used the 3xPSMA4-ARE-LUC dual reporter assay in HEK293 cells. […] A reduction in luminescence signal upon NAC co-treatment would indicate that the compound activates the reporter via ROS-mediated mechanism or Keap1-NRF2-dependent oxidative/electrophilic stress. […]

[1] = system: HCT116 cells expressing EGFP-HttQ74; assay: PolyQ toxicity assay (EGFP-HttQ74, alamarBlue) in HCT116 WT and DDI2 KO cells; assay type: cell-based, human; conditions: 48 h
Experimental: Fig. 3 (A) HEK293 cells were treated with RUN compounds at a concentration of 7.5 μM for 16 hours. DMSO was used as a vehicle control. Proteasome chymotrypsin-like activity was measured in cell lysates at 37 °C. Data came from three biological replicates (n = 3). Statistical analysis was done using ratio paired t-tests corrected for multiple comparisons with Holm–Šídák's method (α = 0.05). *p < 0.05. Detailed results of the analysis are shown in SI Table S7. […] HCT116 parental cells (WT) and two independent DDI2 knockout clones (KO 04 and KO 11), in which NFE2L1 activation is impaired, were transiently transfected with plasmids encoding non-aggregating EGFP-HttQ23 or aggregation-prone EGFP-HttQ74. Cells were treated with 1 or 3 μM RUN-89 for 48 hours, and viability was measured using the alamarBlue assay. […] Data are shown as the Geomean ± GeoSD from four independent biological replicates (n = 4). Statistical analysis was performed on log2-transformed values using two-way repeated-measures ANOVA followed by Šídak's multiple comparison test. (C right) Parental SH-SY5Y cells (without α-synuclein expression) were treated in the same manner. (C left) The protective effect of RUN compounds was assessed by rotenone-induced α-synuclein proteotoxicity in SH-SY5Y cells, which mimics the PD-like phenotype. Cells were pre-treated with increasing concentrations of RUN compounds (0.312, 0.625, 1.25, and 2.5 μM) for 4 hours and then rotenone (1.125 μM) treatment was done for 24 hours.
To further evaluate the protective capacity of RUN-89 in a polyQ aggregation model, we transiently transfected HCT116 parental cells (wt) and DDI2 knockout clones (KO4 and KO11) with plasmids encoding either a non-aggregating EGFP-HttQ23 or an aggregation-prone EGFP-HttQ74 construct. This model is widely used to study Huntington's disease (HD), a prototypical polyglutamine expansion disorder caused by expanded CAG repeats in the huntingtin gene.[67–69] […] Cells were treated with increasing concentrations of RUN-89 (1 and 3 μM) for 48 h, and viability was assessed using the alamarBlue assay (Fig. 3B). […]

Row | Structure (SMILES) | NFE2L1 reporter activation in the presence of NAC (NFE2L1 pathway) | Protective effect in DDI2-deficient clones expressing HttQ74 ([1]; 1 and 3 μM) | Survival of wild-type cells expressing HttQ74 ([1]; 1 and 3 μM) | Viability of EGFP-HttQ74 cells (mean), KO 04, 1 μM ([1]; HCT116 DDI2-/- KO 04, 1 μM, alamarBlue) | Viability of EGFP-HttQ74 cells (mean), KO 04, 3 μM ([1]; HCT116 DDI2-/- KO 04, 3 μM, alamarBlue) | Viability of EGFP-HttQ74 cells (mean), KO 11, 1 μM ([1]; HCT116 DDI2-/- KO 11, 1 μM, alamarBlue) | Viability of EGFP-HttQ74 cells (mean), KO 11, 3 μM ([1]; HCT116 DDI2-/- KO 11, 3 μM, alamarBlue) | Viability of EGFP-HttQ74 cells (mean), WT, 1 μM ([1]; HCT116 WT, 1 μM, alamarBlue) | Viability of EGFP-HttQ74 cells (mean), WT, 3 μM ([1]; HCT116 WT, 3 μM, alamarBlue)
1 | COc1ccc(/C=C2\CC(NC(=O)c3ccccn3)C/C(=C\c3ccc(OC)c(OC)c3)C2=O)cc1OC (stereo not drawn) [RUN-94] | retained its activity |  |  |  |  |  |  |  | 
2 | COc1ccc(/C=C2\CC(NC(=O)C3CCCC3)C/C(=C\c3ccc(OC)c(OC)c3)C2=O)cc1OC (stereo not drawn) [RUN-89] |  | strongly reduced | significantly improved survival | 41.44 | 16.49 | 59.5 | 37.35 | 72.36 | 79.66

Reference: article PMC12606464, “Investigating NFE2L1 activators for targeted protein aggregate clearance: a follow-up study” (RSC Medicinal Chemistry, 2025)
